# Reference: patent US20100273189A1, “NON SEPARATION ASSAYS WITH SELECTIVE SIGNAL INHIBITORS” (BECKMAN COULTER, INC., priority 2009, published 2010)
# System: TnI
# Test: Effect of trigger pH: TnI on LodeStars with ascorbate
# Type: biochemical
# Procedure: B. In order to determine the effect of trigger solution pH on a variety of test assay systems, a series of experiments were conducted varying trigger pH. […] In the tables, two pH values are listed for each data set. The first is the pH of the buffer sample added to the reaction mixture. The second is the resulting pH of the final reaction mix.
# [1] = Control (7.5), S1, TnI 172 ng/ml
# [2] = Control (7.5), S2, TnI 366 ng/ml
# [3] = Control (7.5), S3, TnI 1368 ng/ml
# [4] = Control (7.5), S4, TnI 11136 ng/ml
# [5] = Control (7.5), S5, TnI 27922 ng/ml
# [6] = Control (7.5), S6, TnI 10600 ng/ml
# [7] = pH 6.0 (5.9), S1, TnI 172 ng/ml
# [8] = pH 6.0 (5.9), S2, TnI 366 ng/ml
# [9] = pH 6.0 (5.9), S3, TnI 1368 ng/ml
# [10] = pH 6.0 (5.9), S4, TnI 11136 ng/ml
# [11] = pH 6.0 (5.9), S5, TnI 27922 ng/ml
# [12] = pH 6.0 (5.9), S6, TnI 10600 ng/ml
# [13] = pH 7.0 (7.1), S1, TnI 172 ng/ml
# [14] = pH 7.0 (7.1), S2, TnI 366 ng/ml
# [15] = pH 7.0 (7.1), S3, TnI 1368 ng/ml
# [16] = pH 7.0 (7.1), S4, TnI 11136 ng/ml
# [17] = pH 7.0 (7.1), S5, TnI 27922 ng/ml
# [18] = pH 7.0 (7.1), S6, TnI 10600 ng/ml
# [19] = pH 8.0 (7.9), S1, TnI 172 ng/ml
# [20] = pH 8.0 (7.9), S2, TnI 366 ng/ml
# [21] = pH 8.0 (7.9), S3, TnI 1368 ng/ml
# [22] = pH 8.0 (7.9), S4, TnI 11136 ng/ml
# [23] = pH 8.0 (7.9), S5, TnI 27922 ng/ml
# [24] = pH 8.0 (7.9), S6, TnI 10600 ng/ml
# [25] = pH 9.0 (8.7), S1, TnI 172 ng/ml
# [26] = pH 9.0 (8.7), S2, TnI 366 ng/ml
# [27] = pH 9.0 (8.7), S3, TnI 1368 ng/ml
# [28] = pH 9.0 (8.7), S4, TnI 11136 ng/ml
# [29] = pH 9.0 (8.7), S5, TnI 27922 ng/ml
# [30] = pH 9.0 (8.7), S6, TnI 10600 ng/ml
smiles,measurement,setting,value
"O=C1O[C@H]([C@@H](O)CO)C(O)=C1O [Ascorbic Acid, Ascorbic acid]",Ave RLUs,"Control (7.5), S0, TnI 0 ng/ml",543 RLU
same,Ave RLUs,[1],"1,013 RLU"
same,S/S0,[1],1.9
same,Ave RLUs,[2],"1,815 RLU"
same,S/S0,[2],3.3
same,Ave RLUs,[3],"5,981 RLU"
same,S/S0,[3],11.0
same,Ave RLUs,[4],"53,524 RLU"
same,S/S0,[4],98.6
same,Ave RLUs,[5],"155,889 RLU"
same,S/S0,[5],287.3
same,Ave RLUs,[6],"1,235,103 RLU"
same,S/S0,[6],2276.0
same,Ave RLUs,"pH 6.0 (5.9), S0, TnI 0 ng/ml",273 RLU
same,Ave RLUs,[7],379 RLU
same,S/S0,[7],1.4
same,Ave RLUs,[8],600 RLU
same,S/S0,[8],2.2
same,Ave RLUs,[9],"1,452 RLU"
same,S/S0,[9],5.3
same,Ave RLUs,[10],"11,579 RLU"
same,S/S0,[10],42.4
same,Ave RLUs,[11],"32,519 RLU"
same,S/S0,[11],119.0
same,Ave RLUs,[12],"216,379 RLU"
same,S/S0,[12],791.6
same,Ave RLUs,"pH 7.0 (7.1), S0, TnI 0 ng/ml",519 RLU
same,Ave RLUs,[13],"1,031 RLU"
same,S/S0,[13],2.0
same,Ave RLUs,[14],"1,703 RLU"
same,S/S0,[14],3.3
same,Ave RLUs,[15],"5,695 RLU"
same,S/S0,[15],11.0
same,Ave RLUs,[16],"57,599 RLU"
same,S/S0,[16],111.1
same,Ave RLUs,[17],"145,140 RLU"
same,S/S0,[17],279.8
same,Ave RLUs,[18],"938,075 RLU"
same,S/S0,[18],1808.6
same,Ave RLUs,"pH 8.0 (7.9), S0, TnI 0 ng/ml",699 RLU
same,Ave RLUs,[19],"1,319 RLU"
same,S/S0,[19],1.9
same,Ave RLUs,[20],"2,359 RLU"
same,S/S0,[20],3.4
same,Ave RLUs,[21],"8,048 RLU"
same,S/S0,[21],11.5
same,Ave RLUs,[22],"72,016 RLU"
same,S/S0,[22],103.1
same,Ave RLUs,[23],"225,113 RLU"
same,S/S0,[23],322.2
same,Ave RLUs,[24],"1,574,655 RLU"
same,S/S0,[24],2253.8
same,Ave RLUs,"pH 9.0 (8.7), S0, TnI 0 ng/ml",413 RLU
same,Ave RLUs,[25],716 RLU
same,S/S0,[25],1.7
same,Ave RLUs,[26],"1,097 RLU"
same,S/S0,[26],2.7
same,Ave RLUs,[27],"3,999 RLU"
same,S/S0,[27],9.7
same,Ave RLUs,[28],"36,424 RLU"
same,S/S0,[28],88.1
same,Ave RLUs,[29],"107,020 RLU"
same,S/S0,[29],258.9
same,Ave RLUs,[30],"855,956 RLU"
same,S/S0,[30],2070.9
